Assay results from patent US5158946A, “Cephalosporin derivatives and pharmaceutical compositions” (Beecham Group p.l.c., priority 1989, dated 1992).
In brackets after ≈: the same amount, converted by molar mass. Where a name gives a salt, the structure may show the parent alone. Read-outs that look alike come from different tables or passages of the source.

Columns and labels:
[1] = tested on: S. aureus (Oxford); assay: In vitro antibacterial activity, MIC against S. aureus (Oxford); assay type: cell-based
[2] = tested on: E. coli (NCTC 10418); assay: In vitro antibacterial activity, MIC against E. coli (NCTC 10418); assay type: cell-based
[3] = Staphylococcus aureus, read-out: MIC
[4] = Escherichia coli, NCTC10418, E. coli (NCTC 10418), read-out: MIC

Row | MIC [1, 3] | MIC ([2]; E. coli (NCTC 10418)) | MIC [1] | MIC [2, 4] | Compound
1 | 4 µg/mL (≈ 8.07 µM) | 0.5 µg/mL (≈ 1.01 µM) | – | – | CO/N=C(\C(=O)N[C@@H]1C(=O)N2C(C(=O)O)=C(OC3C=C(C)C(=O)O3)CS[C@H]12)c1csc(N)n1 (single isomer, unassigned) [3 Isomer (a)]
2 | – | 0.12 µg/mL (≈ 0.242 µM) | 4 µg/mL (≈ 8.07 µM) | – | CO/N=C(\C(=O)N[C@@H]1C(=O)N2C(C(=O)O)=C(OC3C=C(C)C(=O)O3)CS[C@H]12)c1csc(N)n1 (single isomer, unassigned) [3 Isomer (b)]
3 | 1 µg/mL | – | – | 0.12 µg/mL | CO/N=C(\C(=O)N[C@@H]1C(=O)N2C(C(=O)O)=C(SC3=CC(=O)OC3)CS[C@H]12)c1csc(N)n1 [Example 2, Sodium 7β-[2-(2-Aminothiazol-4-yl)-2-(Z)-methoxyiminoacetamido]-3-(2,5-dihydro-2-oxofuran-4-ylthio)ceph-3-em-4-carboxylate]
4 | 1 µg/mL | – | – | 0.25 µg/mL | CO/N=C(\C(=O)N[C@@H]1C(=O)N2C(C(=O)O)=C(Sc3cc(C)oc(=O)c3)CS[C@H]12)c1csc(N)n1 [Example 4, Sodium 7β-[2-(2-Aminothiazol-4-yl)-2-(Z)-methoxyiminoacetamido]-3-(6-methyl-2-oxo-2H-pyran-4-ylthio)ceph-3-em-4-carboxylate]
5 | 0.12 µg/mL (≈ 0.241 µM) | – | – | < 0.03 µg/mL | Nc1nc(/C(=N/O)C(=O)N[C@@H]2C(=O)N3C(C(=O)O)=C(CSC4=CC(=O)OC4)CS[C@H]23)cs1 [Example 6, 7β-[2-(2-Aminothiazol-4-yl)-2-(Z)-hydroxyiminoacetamido]-3-(2,5-dihydro-2-oxofuran-4-ylthiomethyl)ceph-3-em-4-carboxylic acid]
6 | 0.25 µg/mL (≈ 0.502 µM) | – | – | 0.12 µg/mL (≈ 0.241 µM) | Nc1nc(/C(=N/O)C(=O)N[C@@H]2C(=O)N3C(C(=O)O)=C(SCC4=CCOC4=O)CS[C@H]23)cs1 [Example 8, 7β-[2-(2-Aminothiazol-4-yl)-2-(Z)-hydroxyiminoacetamido]-3-(2,5-dihydro-2-oxofuran-3-ylmethylthio)ceph-3-em-4-carboxylic acid]
7 | 0.25 µg/mL (≈ 0.502 µM) | – | – | 0.12 µg/mL (≈ 0.241 µM) | Nc1nc(/C(=N/O)C(=O)N[C@@H]2C(=O)N3C(C(=O)O)=C(SCC4=CC(=O)OC4)CS[C@H]23)cs1 [Example 12, 7β-[2-(2-Aminothiazol-4-yl)-2-(Z)-hydroxyiminoacetamido]-3-(2,5-dihydro-2-oxofuran-4-ylmethylthio)ceph-3-em-4-carboxylic acid]
8 | 0.5 µg/mL | – | – | < 0.03 µg/mL | CO/N=C(\C(=O)N[C@@H]1C(=O)N2C(C(=O)O)=C(CSc3cc(C)oc(=O)c3)CS[C@H]12)c1csc(N)n1 [Example 14, Sodium 7β-[2-(2-Aminothiazol-4-yl)-2-(Z)-methoxyiminoacetamido]-3-(6-methyl-2-oxo-2H-pyran-4-ylthiomethyl)ceph-3-em-4-carboxylate]
9 | 0.25 µg/mL | – | – | < 0.03 µg/mL | CO/N=C(\C(=O)N[C@@H]1C(=O)N2C(C(=O)O)=C(CSc3ccoc(=O)c3)CS[C@H]12)c1csc(N)n1 [Example 15, Sodium 7β-[2-(2-Aminothiazol-4-yl)-2-(Z)-methoxyiminoacetamido]-3-(2-oxo-2H-pyran-4-ylthiomethyl)ceph-3-em-4-carboxylate]
10 | 8 µg/mL | – | – | < 0.06 µg/mL | Nc1nc(/C(=N/OCC(=O)O)C(=O)N[C@@H]2C(=O)N3C(C(=O)O)=C(CSC4=CC(=O)OC4)CS[C@H]23)cs1 [Example 16, 7β-[2-(2-Aminothiazol-4-yl)-2-(Z)-carboxymethoxyiminoacetamido]-3-(2,5-dihydro-2-oxofuran-4-ylthiomethyl)ceph-3-em-4-carboxylic acid, disodium salt]
11 | 0.25 µg/mL (≈ 0.477 µM) | – | – | 0.06 µg/mL (≈ 0.115 µM) | Cc1cc(SCC2=C(C(=O)O)N3C(=O)[C@@H](NC(=O)/C(=N\O)c4csc(N)n4)[C@H]3SC2)cc(=O)o1 [Example 17, 7β-[2-(2-Aminothiazol-4-yl)-2-(Z)-hydroxyiminoacetamido]-3-(6-methyl-2-oxo-2H-pyran-4-ylthiomethyl)ceph-3-em-4-carboxylic acid]

Row | Compound | MIC [1, 3] | MIC ([2]; E. coli (NCTC 10418)) | MIC [1] | MIC [2, 4]
12 | CO/N=C(\C(=O)N[C@@H]1C(=O)N2C(C(=O)[O-])=C(SCC3=CC(=O)OC3)CS[C@H]12)c1csc(N)n1.[Na+] [Example 1, Sodium 7β-[2-(2-Aminothiazol-4-yl)-2-(Z)-methoxyiminoacetamido]-3-(2,5-dihydro-2-oxofuran-4-ylmethylthio)ceph-3-em-4-carboxylate] | 0.25 µg/mL | – | – | < 0.03 µg/mL
13 | CO/N=C(\C(=O)N[C@@H]1C(=O)N2C(C(=O)[O-])=C(CSC3=CC(=O)OC3)CS[C@H]12)c1csc(N)n1.[Na+] [Example 5, Sodium 7β-[2-(2-Aminothiazol-4-yl)-2-(Z)-methoxyiminoacetamido]-3-(2,5-dihydro-2-oxofuran-4-ylthiomethyl)ceph-3-em-4-carboxylate] | 0.25 µg/mL | – | – | < 0.03 µg/mL
14 | CO/N=C(\C(=O)N[C@@H]1C(=O)N2C(C(=O)[O-])=C(SCC3=CCOC3=O)CS[C@H]12)c1csc(N)n1.[Na+] [Example 7, Sodium 7β-[2-(2-Aminothiazol-4-yl)-2-(Z)-methoxyiminoacetamido]-3-(2,5-dihydro-2-oxofuran-3-ylmethylthio)ceph-3-em-4-carboxylate] | 0.5 µg/mL | – | – | < 0.03 µg/mL
15 | CO/N=C(\C(=O)N[C@@H]1C(=O)N2C(C(=O)[O-])=C(SC3CCOC3=O)CS[C@H]12)c1csc(N)n1.[Na+] (stereo partly drawn) [Example 9, Sodium 7β-[2-(2-Aminothiazol-4-yl)-2-(Z)-methoxyiminoacetamido]-3-(2-oxotetrahydrofuran-3-ylthio)ceph-3-em-4-carboxylate] | 2 µg/mL | – | – | 0.12 µg/mL
16 | CO/N=C(\C(=O)N[C@@H]1C(=O)N2C(C(=O)[O-])=C(CSC3=C(Cl)C(=O)OC3)CS[C@H]12)c1csc(N)n1.[Na+] [Example 13, Sodium 7β-[2-(2-Aminothiazol-4-yl)-2-(Z)-methoxyiminoacetamido]-3-(3-chloro-2,5-dihydro-2-oxofuran-4-ylthiomethyl)ceph-3-em-4-carboxylate] | 0.25 µg/mL | – | – | < 0.03 µg/mL
17 | CO/N=C(\C(=O)N[C@@H]1C(=O)N2C(C(=O)[O-])=C(OCC3=CC(=O)OC3)CS[C@H]12)c1csc(N)n1.[Na+] [Example 22, Sodium 7β-[2-(2-Aminothiazol-4-yl)-2-(Z)-methoxyiminoacetamido]-3-(2,5-dihydro-2-oxofuran-4-ylmethyloxy)ceph-3-em-4-carboxylate] | 2 µg/mL | – | – | 0.06 µg/mL
